“Also recorded” adds a separate entry of the source. Read-outs that look alike come from different tables or passages of the source.
How the values were obtained:
[1] = test system: HeLa S3 cells; test: MTT cytotoxicity assay, HeLa S3 cells; assay type: cell-based, human; settings: treatment for 24 h
Experimental: (§1) HeLa S3, A549, and IMR-90 cells (1 × 10^4 cells/well) were seeded on 96-well plates (Watson) in cell culture medium. […] After incubation for 4 h, a formazan lysis solution (10% sodium dodecyl sulfate in 0.01 N HCl aq) (100 μL) was added and the resulting solution was incubated under same conditions overnight. The absorbance at λ = 570 nm was measured with a microplate reader (Bio-Rad).

[2] = test system: A549 cells; test: MTT cytotoxicity assay, A549 cells; assay type: cell-based, human; settings: read-out: IC50 A549
Experimental: as §1

[3] = test system: IMR-90 cells; test: MTT cytotoxicity assay, IMR-90 cells; assay type: cell-based; settings: 0–200 μM, treatment for 24 h, normal human fibroblast
Experimental: as §1

[4] = Hydrolysis of the C–B bond observed by ^11B-NMR; assay type: physicochemical
From the text: The Zn^2+ complex of the o-form 7 was not obtained due to the carbon–boron bond cleavage that occurred upon complexation with Zn^2+, as previously described.[20]

[5] = test system: A549 cells; test: Anti-tumor effect with thermal neutron irradiation (colony formation assay); assay type: cell-based, human; settings: A549, 30 μM for 24 h, thermal neutrons 0–45 min, colony formation after 7 days
Experimental: BNCT experiments using A549 cells in the presence of the aforementioned B-containing drugs (^10B/^11B and ^10B-enriched compounds) were conducted at the Institute for Integrated Radiation and Nuclear Science, Kyoto University (KURNS). As shown in Scheme 12, A549 cells were incubated with the boron compounds (30 μM) for 24 h and suspensions (5 × 10^4 cells/mL) of these cells were irradiated with thermal neutrons [average thermal neutron flux: (1.5 ± 0.1) × 10^9 n/cm^2·s] at room temperature for various times (0, 15, 30, and 45 min). The irradiated cells were seeded on the 12 well plate (3 × 10^3 cells/well), incubated for 7 days, fixed with EtOH, and stained with crystal violet to produce visualizable images (Figure S5 in the Supporting Information). The surviving fractions were calculated as the stained colony area using the “ImageJ-plugin Colony Area”[43] software and normalized by comparing the results with those for non-irradiated cell samples (Figure 6).
A549 cells (5 × 10^5 cells/well) were seeded on 6-well plates (TrueLine, USA) and incubated in cell culture medium at 37 °C under 5% CO2 for 1 day. After removing the cell culture medium, the cells were washed gently with PBS. […] The thermal neutron flux (1.5 × 10^9 n/cm^2·s) was measured by two gold foils which were attached to the surface of the 1.5 mL tube. […]

[6] = test system: HeLa S3 cells; test: Effect of inhibitors on intracellular uptake, HeLa S3 cells; assay type: cell-based, human; settings: HeLa S3, 30 μM, 37 °C, 1 h
Experimental: Data represent the mean ± SD of at least three replicates.
HeLa S3 and A549 cells (5 × 10^5 cells/well) were seeded on 6-well plates (TrueLine, USA) and incubated in cell culture medium at 37 °C under 5% CO2 for 2 days (n = 4). […] To count the number of cells after treatment with the boron compounds, the cells (n = 1) were washed with PBS, detached by trypsin, and counted with a hemocytometer. For measurement of boron uptake, the cells (n = 3) were washed with PBS (1 mL ×3) and digested with 60% HNO3 aq (0.5 mL) at room temperature for 24 h, which were transferred to 15 mL centrifuge tubes with Milli-Q water (3.5 mL). These tubes were centrifuged at 3000 rpm and 4 °C for 10 min and then sample solutions were filtered. The concentration of boron atoms was determined by ICP–MS (NexION300S, PerkinElmer, Waltham, Massachusetts, USA).

[7] = test system: double-stranded calf-thymus DNA (ctDNA); test: Thermal denaturation (melting temperature) of ctDNA; assay type: binding; settings: pH 7.4; for Tm of ctDNA: without additive 66
Experimental: Thermal denaturation experiments of ctDNA (50 μM in phosphate) in 10 mM HEPES buffer (pH 7.4) with I = 0.02 (NaNO3) were performed on a JASCO V-550 UV/vis spectrophotometer (JASCO, Tokyo, Japan) equipped with a thermoelectric temperature controller (±0.5 °C), a stirring unit, and a 10 mm quartz cuvette. All aqueous solutions were made with purified water. The concentration of ctDNA was determined by UV absorption spectroscopy based on its molar extinction coefficient at 253 nm (ε253 = 6.6 × 10^3).[31d],[45] […] The Tm value was graphically determined from the spectral data, and the ΔTm value for each condition was calculated from the results in the presence and absence of additives.

[8] = parameters: method as in earlier work; settings: aqueous solution at 25 °C, ref 24−26; cited from earlier work
[9] = parameters: method as in PMID 32192025; settings: aqueous solution at 25 °C; cited from earlier work
[10] = Homo sapiens, HeLa S3, 0–200 μM

Compound: O=C(O)C(F)(F)F.OB(O)c1ccc(CN2CCNCCNCC2)cc1 [12a, 1-[(4-Boronopheny)methyl]-1,4,7-triazacyclononane]
- IC50 [1, 10]: > 200 µM
- IC50 ([2]; Homo sapiens, A549, 24 h): > 200 µM
- IC50 ([3]; Homo sapiens, IMR-90, 24 h): > 200 µM
- melting point: 138 to 141 °C

Compound: O=C(O)C(F)(F)F.OB(O)c1ccc(CN2CCNCCNCCNCC2)cc1 [13a, 1-[(4-Boronopheny)methyl]-1,4,7,10-tetraazacyclododecane]
- IC50 [1, 10]: > 200 µM
- IC50 ([2]; Homo sapiens, A549, 24 h): > 200 µM
- IC50 ([3]; Homo sapiens, IMR-90, 24 h): > 200 µM
- melting point: 172 to 175 °C

Compound: O=C(O)C(F)(F)F.OB(O)c1ccc(CN2CCNCCNCCNCCNCC2)cc1 [14a, 1-[(4-Boronopheny)methyl]-1,4,7,10,13-pentaazacyclopentadecane]
- IC50 [1, 10]: > 200 µM
- IC50 ([2]; Homo sapiens, A549, 24 h): > 200 µM
- IC50 ([3]; Homo sapiens, IMR-90, 24 h): > 200 µM
- melting point: 136 to 137 °C

Compound: c1cc(B2OC3(CCCCC3)C3(CCCCC3)O2)ccc1CN1CCNCCNCC1 [15a]
- melting point: 65 to 67 °C

Compound: c1cc(CN2CCNCCNCC2)cc(B2OC3(CCCCC3)C3(CCCCC3)O2)c1 [15b]
- melting point: 57 to 58 °C

Compound: c1cc(B2OC3(CCCCC3)C3(CCCCC3)O2)ccc1CN1CCNCCNCCNCC1 [16a]
- melting point: 129 to 131 °C

Compound: c1cc(CN2CCNCCNCCNCC2)cc(B2OC3(CCCCC3)C3(CCCCC3)O2)c1 [16b]
- melting point: 46 to 48 °C

Compound: c1cc(B2OC3(CCCCC3)C3(CCCCC3)O2)ccc1CN1CCNCCNCCNCCNCC1 [17a]
- melting point: 43 to 44 °C

Compound: c1ccc(B2OC3(CCCCC3)C3(CCCCC3)O2)c(CN2CCNCCNCCNCCNCC2)c1 [17c, 1-[2-(13,15-Dioxa-15-boradispiro[5.0.5.3]pentadec-14-yl)phenyl]methyl-1,4,7,10,13-pentaazacyclopentadecane]
- melting point: 78 to 80 °C

Compound: [Zn+2].c1ccc(B2OC3(CCCCC3)C3(CCCCC3)O2)c(CN2CCNCCNCCNCCNCC2)c1 [20c]
- half-life of C–B bond hydrolysis [4]: ~24 h

Compound: c1cc(C2OC3(CCCCC3)C3(CCCCC3)O2)ccc1CN1CCNCCNCCNCCNCC1 [^10B-17a, 1-[4-(13,15-Dioxa-15-boradispiro[5.0.5.3]pentadec-14-yl)phenyl]methyl-1,4,7,10,13-pentaazacyclopentadecane]
- BNCT effect (cytotoxic activity after thermal neutron irradiation, surviving fraction) [5]: higher than that for 1 (^10B-BSH) and 2 (^10B-BPA); also recorded: higher BNCT effect than ^10B-19b and ^10B-20a

Compound: N[C@@H](Cc1ccc([10B](O)O)cc1)C(=O)O [compound 2, L-4-boronophenylalanine, reference compound]
- IC50 [1, 10]: > 200 µM
- IC50 ([2]; Homo sapiens, A549, 24 h, MTT, 0–200 μM, treatment for 24 h): > 200 µM
- IC50 ([3]; Homo sapiens, IMR-90, 24 h): > 200 µM
- relative uptake in the presence of MβCD ([6]; 1.5 mM of MβCD): weak inhibition
- relative uptake in the presence of amiloride ([6]; 2 mM of amiloride): increased intracellular uptake

Compound: NCCCCNCCCN [compound 3, spermidine]
- ΔTm of ctDNA ([7]; r = 0.1, [ctDNA(P)] = 50 μM): +7 °C
- Tm of ctDNA ([7]; r = 0.1, [ctDNA(P)] = 50 μM): 73 °C
- ΔTm of ctDNA ([7]; r = 0.2, [ctDNA(P)] = 50 μM): +12 °C
- Tm of ctDNA ([7]; r = 0.2, [ctDNA(P)] = 50 μM): 78 °C

Compound: C1CNCCNCCN1 [compound 9, 1,4,7-triazacyclononane]
- pKa1 [8]: less than 2

Compound: C1CNCCNCCNCCN1 [compound 10, 1,4,7,10-tetraazacyclododecane]
- pKa1 [8]: less than 2
- pKa2 [8]: less than 2

Compound: C1CNCCNCCNCCNCCN1 [compound 11, 1,4,7,10,13-pentaazacyclopentadecane]
- pKa1 [8]: less than 2
- pKa2 [8]: less than 2

Compound: C1CNCCNCCN1.[Zn+2] [compound 31]
- log KZnL [9]: 11.3

Compound: sodium mercaptoborate [compound 1, reference compound]
- IC50 ([1]; 0–200 μM): > 200 µM
- IC50 ([2]; MTT, 0–200 μM, treatment for 24 h): > 200 µM
- IC50 [3]: > 200 µM

Reference: publication PMC8279495, “Design, Synthesis, and Biological Evaluation of Boron-Containing Macrocyclic Polyamines and Their Zinc(II) Complexes for Boron Neutron Capture Therapy” (Journal of Medicinal Chemistry, 2021)
